Like-named read-outs stand apart in the source and are kept apart here. Residues, ends and D or L forms follow the SMILES beside them.
What was measured:
BLNK SH2 domain = BLNK SH2 domain (Homo sapiens, UniProt Q8WV28); assay: FP saturation binding assay
NCK2 SH2 domain = NCK2 SH2 domain (Homo sapiens, UniProt O43639); assay: FP saturation binding assay
SH2D1B SH2 domain = molecular target: T1, SH2D1B SH2 domain (Homo sapiens, UniProt O14796); assay: FP saturation binding assay
T1 sequence (O14796 5-101 limits assumed): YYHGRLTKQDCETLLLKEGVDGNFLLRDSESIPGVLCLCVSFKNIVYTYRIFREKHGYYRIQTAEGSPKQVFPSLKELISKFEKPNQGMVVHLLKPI

SH2 and PTB domains = details: original PM interactions, ref Jones et al. 2006 / Kaushansky et al. Chem and Biol 2008, cited from earlier work
Excerpt: Supplement pone.0044471.s022.xlsx, sheet "Most recent PM interactions" | column: Kd || Supplement pone.0044471.s022.xlsx, sheet "All original PM interactions" | column: Kd

GRB7 SH2 domain = GRB7 SH2 domain (Homo sapiens, UniProt Q14451); design: 6X His; thioredoxin; made in house; host or cells: E. coli BL21(DE3)pLysS; details: previous protein microarray data, Figure S5; cited from earlier work
GRB7 SH2 domain, sequence (Q14451 431-527 limits assumed): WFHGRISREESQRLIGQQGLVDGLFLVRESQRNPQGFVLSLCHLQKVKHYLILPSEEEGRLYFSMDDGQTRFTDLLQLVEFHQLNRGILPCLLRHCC

BLNK SH2 domain, sequence (Q8WV28 346-453 limits assumed): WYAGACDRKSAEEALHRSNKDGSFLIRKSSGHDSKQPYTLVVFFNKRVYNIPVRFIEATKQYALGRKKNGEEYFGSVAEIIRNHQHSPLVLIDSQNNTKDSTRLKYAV
NCK2 SH2 domain, sequence (O43639 285-380 limits assumed): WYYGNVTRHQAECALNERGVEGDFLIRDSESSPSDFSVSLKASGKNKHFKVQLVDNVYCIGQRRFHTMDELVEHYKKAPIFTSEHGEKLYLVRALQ

## CSCC[C@H](NC(=O)[C@H](Cc1ccc(OP(=O)(O)O)cc1)NC(=O)[C@H](CCC(=O)O)NC(=O)[C@H](Cc1ccc(O)cc1)NC(=O)CNC(=O)[C@@H](N)CC(C)C)C(=O)N[C@@H](CC(=O)O)C(=O)N[C@H](C(=O)NCC(=O)N[C@@H](CO)C(=O)N[C@@H](CC(=O)O)C(=O)N[C@@H](CC(C)C)C(=O)N[C@@H](CC(=O)O)C(=O)O)C(C)C [ErbB3 1224 13-mer] (HELM PEPTIDE1{L.G.Y.E.[O=C([C@H](Cc1ccc(OP(=O)(O)O)cc1)N[*:1])[*:2]].M.D.V.G.S.D.L.D}$$$$V2.0)
BLNK SH2 domain
  Kd: 3.63 µM
NCK2 SH2 domain
  Kd: 4.6 µM
SH2D1B SH2 domain
  Kd: 1.47 µM

## DNLYpYWDQDPPEd [ErbB2 pY1222, N-terminally rhodamine-labeled 13-mer phosphopeptide]
SH2 and PTB domains; Protein ABL1
  Kd: 1.84 µM
SH2 and PTB domains; Protein ABL2
  Kd: 0.19 µM
SH2 and PTB domains; Protein BCAR3
  Kd: 2 µM
SH2 and PTB domains; Protein BLK
  Kd: 2 µM
SH2 and PTB domains; Protein BMX
  Kd: 2 µM
SH2 and PTB domains; Protein BTK
  Kd: 2 µM
SH2 and PTB domains; Protein CRKL
  Kd: 1.46 µM
SH2 and PTB domains; Protein DAPP1
  Kd: 2 µM
SH2 and PTB domains; Protein FGR
  Kd: 2 µM
SH2 and PTB domains; Protein GRB10
  Kd: 0.49 µM
SH2 and PTB domains; Protein HSH2D
  Kd: 2 µM
SH2 and PTB domains; Protein ITK
  Kd: 2 µM
SH2 and PTB domains; Protein NCK1
  Kd: 2 µM
SH2 and PTB domains; Protein PIK3R1-C
  Kd: 2 µM
SH2 and PTB domains; Protein PIK3R1-NC
  Kd: 1.84 µM
SH2 and PTB domains; Protein PIK3R2-NC
  Kd: 2 µM
SH2 and PTB domains; Protein PIK3R3-C
  Kd: 2 µM
SH2 and PTB domains; Protein PIK3R3-NC
  Kd: 0.78 µM
SH2 and PTB domains; Protein PLCG1-N
  Kd: 2 µM
SH2 and PTB domains; Protein PLCG1-NC
  Kd: 1.79 µM
SH2 and PTB domains; Protein PLCG2-N
  Kd: 2 µM
SH2 and PTB domains; Protein PLCG2-NC
  Kd: 2 µM
SH2 and PTB domains; Protein PTPN6-C
  Kd: 2 µM
SH2 and PTB domains; Protein PTPN11-N
  Kd: 2 µM
SH2 and PTB domains; Protein RASA1-C
  Kd: 2 µM
SH2 and PTB domains; Protein RASA1-N
  Kd: 0.5 µM
SH2 and PTB domains; Protein RASA1-NC
  Kd: 2 µM
SH2 and PTB domains; Protein SH2B2
  Kd: 1.47 µM
SH2 and PTB domains; Protein SH2B3
  Kd: 2 µM
SH2 and PTB domains; Protein SH2D1A
  Kd: 2 µM
SH2 and PTB domains; Protein SH2D1B
  Kd: 2 µM
SH2 and PTB domains; Protein SH2D3A
  Kd: 1.6 µM
SH2 and PTB domains; Protein SH2D3C
  Kd: 0.71 µM
SH2 and PTB domains; Protein SHC1-PTB
  Kd: 0.09 µM
SH2 and PTB domains; Protein SHC1
  Kd: 2 µM
SH2 and PTB domains; Protein SHC2-PTB
  Kd: 0.46 µM
SH2 and PTB domains; Protein SHC3
  Kd: 1.71 µM
SH2 and PTB domains; Protein SHC4
  Kd: 2 µM
SH2 and PTB domains; Protein SHD
  Kd: 2 µM
SH2 and PTB domains; Protein SHF
  Kd: 2 µM
SH2 and PTB domains; Protein SLA2
  Kd: 2 µM
SH2 and PTB domains; Protein SLA
  Kd: 2 µM
SH2 and PTB domains; Protein SOCS1
  Kd: 1.92 µM
SH2 and PTB domains; Protein SOCS2
  Kd: 2 µM
SH2 and PTB domains; Protein SOCS3
  Kd: 2 µM
SH2 and PTB domains; Protein SOCS5
  Kd: 2 µM
SH2 and PTB domains; Protein SOCS6
  Kd: 2 µM
SH2 and PTB domains; Protein SRC
  Kd: 2 µM
SH2 and PTB domains; Protein SUPT6H
  Kd: 2 µM
SH2 and PTB domains; Protein SYK-C
  Kd: 1.97 µM
SH2 and PTB domains; Protein SYK-N
  Kd: 0.2 µM
SH2 and PTB domains; Protein SYK-NC
  Kd: 0.46 µM
SH2 and PTB domains; Protein TEC
  Kd: 1.61 µM
SH2 and PTB domains; Protein TENC1
  Kd: 0.84 µM
SH2 and PTB domains; Protein TNS1
  Kd: 2 µM
SH2 and PTB domains; Protein TNS3
  Kd: 1.29 µM
SH2 and PTB domains; Protein TXK
  Kd: 2 µM
SH2 and PTB domains; Protein VAV1
  Kd: 2 µM
SH2 and PTB domains; Protein VAV2
  Kd: 2 µM
SH2 and PTB domains; Protein VAV3
  Kd: 2 µM
SH2 and PTB domains; Protein YES1
  Kd: 2 µM
GRB7 SH2 domain
  interaction with GRB7 on the PM platform: only displayed interactions with GRB7 from the PM platform
